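Five concentrations, 48 hours, 96-well plates. GI50 is the concentration that inhibits growth by half.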 The source made the active and inactive calls. No stated cut-off is given here; in the data, active = GI50 up to about 1.1 µM and inactive = higher.
What was measured:
Experiment in all cases: DTP human tumour cell line panel, 48 h
[1] = system: SK-OV-3
[2] = system: SR
[3] = system: MCF7
[4] = system: OVCAR-4
[5] = system: HCT-15
[6] = system: NCI-H23
[7] = system: DU-145
[8] = system: OVCAR-5
[9] = system: SF-295
[10] = system: COLO 205
[11] = system: HL-60
[12] = system: OVCAR-8
[13] = system: ACHN
[14] = system: U-251
[15] = system: Malme-3M
[16] = system: 786-0
[17] = system: SNB-75
[18] = system: OVCAR-3
[19] = system: UACC-257
[20] = system: RPMI-8226

Measured: GI50

CC12CC(=O)C3C(CCC4=CC(=O)CCC43C)C1CC=C2CC(=O)O (stereo not given)
> 100 µM: [5]
inactive: [1] > 100 µM | [2] > 100 µM | [3] > 100 µM | [4] > 100 µM | [6] > 100 µM | [7] > 100 µM | [8] > 100 µM | [9] > 100 µM | [10] > 100 µM | [11] > 100 µM | [12] > 100 µM | [13] > 100 µM | [14] > 100 µM | [15] > 100 µM | [16] > 100 µM | [17] > 100 µM | [18] 98.2 µM | [19] > 100 µM | [20] > 100 µM

N#CC1CNC(N)NC1N (stereo not given)
inactive: [1] > 100 µM | [2] 34 µM | [3] > 100 µM | [4] > 100 µM | [6] > 100 µM | [7] > 100 µM | [8] > 100 µM | [9] > 100 µM | [10] > 100 µM | [11] > 100 µM | [12] > 100 µM | [13] > 100 µM | [14] > 100 µM | [15] > 100 µM | [16] > 100 µM | [17] > 100 µM | [18] > 100 µM | [19] > 100 µM | [20] > 100 µM
> 100 µM: [5]

CCOC(=O)/C(=C\c1cccc(C)c1)C(C)=O
15.6 µM: [5]
inactive: [1] 25.8 µM | [2] 3.44 µM | [3] 13.2 µM | [4] 19.2 µM | [6] 17 µM | [7] 16.7 µM | [8] 10.9 µM | [9] 23.4 µM | [10] 19.2 µM | [11] 3.98 µM | [12] 21.6 µM | [13] 22.4 µM | [14] 13.1 µM | [15] 14.1 µM | [16] 13.6 µM | [17] 4.94 µM | [18] 14.5 µM | [19] 14.3 µM | [20] 8.17 µM

Cc1cn2c(C)csc2c1P(=O)(OC(C)C)OC(C)C
> 100 µM: [5]
inactive: [1] > 100 µM | [2] > 100 µM | [3] > 100 µM | [4] > 100 µM | [6] > 100 µM | [7] > 100 µM | [8] > 100 µM | [9] > 100 µM | [10] > 100 µM | [11] > 100 µM | [12] > 100 µM | [13] > 100 µM | [14] > 100 µM | [15] > 100 µM | [16] > 100 µM | [17] > 100 µM | [18] > 100 µM | [19] > 100 µM | [20] > 100 µM

O=[N+]([O-])/C=C/c1ccc2ccccc2c1
inactive: [1] 2.57 µM | [3] 1.86 µM | [4] 13.3 µM | [6] 3.6 µM | [7] 4.07 µM | [8] 3.52 µM | [9] 3.99 µM | [10] 2.29 µM | [11] 2.37 µM | [12] 2.69 µM | [13] 1.96 µM | [14] 1.92 µM | [15] 15.6 µM | [16] 2.85 µM | [17] 2 µM | [18] 2.86 µM | [19] 2.6 µM
active: [2] 0.436 µM | [20] 0.372 µM
2.22 µM: [5]

O=C1/C(=C/c2ccc(O)c(O)c2)CC/C1=C\c1ccc(O)c(O)c1
7.16 µM: [5]
inactive: [1] 12.1 µM | [2] 2.3 µM | [3] 6.15 µM | [4] 5.33 µM | [6] 3.09 µM | [7] 9.46 µM | [8] > 42.2 µM | [9] > 44.5 µM | [10] 16.2 µM | [11] 3.39 µM | [12] 10 µM | [13] 4.98 µM | [14] 3.97 µM | [15] > 29.8 µM | [16] 3.83 µM | [17] 6.7 µM | [18] 5.09 µM | [19] 20.8 µM | [20] 2.23 µM

CC(O)C(NC(=O)C(CS)NC(=O)C(CO)NC(=O)C(CCCCN)NC(=O)C(Cc1c[nH]c2ccccc12)NC(=O)C(Cc1ccc(O)cc1)NC(=O)C(CS)NC(=O)C(N)Cc1ccccc1)C(N)=O (stereo not given)
> 25 µM: [5]
inactive: [1] > 25 µM | [2] > 25 µM | [3] > 25 µM | [4] 8.53 µM | [6] > 25 µM | [7] > 25 µM | [8] > 25 µM | [9] > 25 µM | [10] > 25 µM | [11] > 25 µM | [12] > 25 µM | [13] > 25 µM | [14] > 25 µM | [15] > 25 µM | [16] > 25 µM | [17] 25 µM | [18] > 25 µM | [19] > 25 µM | [20] > 25 µM

COC(=O)/C=C(C)/C=C\COC1CCCCO1 (stereo not given)
> 100 µM: [5]
inactive: [1] > 100 µM | [2] > 100 µM | [3] > 100 µM | [4] > 100 µM | [6] > 100 µM | [7] > 100 µM | [8] > 100 µM | [9] > 100 µM | [10] > 100 µM | [11] > 100 µM | [12] > 100 µM | [13] > 100 µM | [14] > 100 µM | [15] > 100 µM | [16] > 100 µM | [17] > 100 µM | [18] > 100 µM | [19] > 100 µM | [20] > 100 µM

O=C1NC(N2CCOCC2)=N/C1=C\c1ccc(O)cc1
> 100 µM: [5]
inactive: [1] > 100 µM | [2] > 100 µM | [3] > 100 µM | [4] > 100 µM | [6] > 100 µM | [7] > 100 µM | [8] > 100 µM | [9] > 100 µM | [10] > 100 µM | [11] > 100 µM | [12] > 100 µM | [13] > 100 µM | [14] > 100 µM | [15] > 100 µM | [16] > 100 µM | [17] 15.7 µM | [18] > 100 µM | [19] > 100 µM | [20] > 100 µM

COc1ccc(/C=C/C(=O)Oc2cc(O)cc(O)c2)cc1
inactive: [1] > 100 µM | [2] 25.1 µM | [3] 19.5 µM | [4] 85.5 µM | [6] 42.1 µM | [7] 56.6 µM | [8] > 100 µM | [9] 23.2 µM | [10] 57.9 µM | [11] 22 µM | [12] 28.2 µM | [13] 87.5 µM | [14] 24.6 µM | [15] 36.6 µM | [16] 56.9 µM | [17] 38.1 µM | [18] 18 µM | [19] > 100 µM | [20] 16.3 µM
16.9 µM: [5]

CCCCCCCCC[C@@H]1C[C@@H]2CCC3C(C(=O)OC)=C(C)N=C(N1)N32 (stereo not given in full)
16.5 µM: [5]
inactive: [1] 10.6 µM | [2] 3.91 µM | [3] 3.72 µM | [4] 6.93 µM | [6] 3.85 µM | [7] 6.41 µM | [8] 18 µM | [9] 9.4 µM | [10] 3.37 µM | [11] 3.47 µM | [12] 4.79 µM | [13] 16.1 µM | [14] 3.27 µM | [15] 10.5 µM | [16] 4.22 µM | [17] 5.71 µM | [18] 3.21 µM | [19] 10.5 µM | [20] 6 µM
